Measured values published in PubChem BioAssay (NCI).
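Interpolation was linear, between the two tested concentrations surrounding the appropriate level; five concentrations were tested over 48 hours in 96-well plates. At the TGI there is no net growth.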

Tests used:
Experiment in all cases: DTP human tumour cell line panel, 48 h
KM20L2 colon = tested on: KM20L2 colon
RXF-631 renal = tested on: RXF-631 renal
SNB-78 CNS = tested on: SNB-78 CNS
XF 498 CNS = tested on: XF 498 CNS
DMS 273 small cell lung = tested on: DMS 273 small cell lung
HOP-18 NSCLC = tested on: HOP-18 NSCLC

Row | SMILES | TGI (KM20L2 colon) | TGI (RXF-631 renal) | TGI (SNB-78 CNS) | TGI (XF 498 CNS) | TGI (DMS 273 small cell lung) | TGI (HOP-18 NSCLC)
1 | C=CCc1cc(-c2cc(CC=C)c(O)c(CNC)c2)cc(CNC)c1O | 30.8 µM | 28.8 µM | 40.8 µM | 30.3 µM | – | –
2 | CSc1nc(NC2OCC(OC(C)=O)C(OC(C)=O)C2OC(C)=O)c(N=C(C)C(C)=O)c(=O)[nH]1 (stereo not given) | – | – | > 100 µM | > 100 µM | > 100 µM | > 100 µM
3 | Cc1nc2c(n1C)C(=O)c1nc(CBr)[nH]c(=O)c1C2=O | > 100 µM | – | – | – | > 100 µM | > 100 µM
4 | CCCCCCCCCCCCCCCc1ccc(OCC(O)CO)cc1 (stereo not given) | 94.4 µM | 71.6 µM | 99.3 µM | 39.3 µM | 33.3 µM | > 100 µM
5 | CN(C)c1nc(N(C)C)nc(N(C)CN(C)c2ccc(Cl)cc2)n1 | – | – | > 100 µM | > 100 µM | > 100 µM | –
6 | Cc1ccc(NP(=O)(Oc2ccccc2)N(CCCl)CCCl)cc1 (stereo not given) | > 100 µM | > 100 µM | > 100 µM | – | > 100 µM | > 100 µM
